Results as given in patent US20080145383A1, “Method for Solubilizing Peptide Mixtures” (priority 2004, published 2008).
Peptide text beside a SMILES is read from it.

What was measured:
[1] = Solubility of the single peptides in water and DMSO; format: physicochemical; settings: single peptide
Method: In the scope of the present invention peptides are characterised by their solubility. Peptides which are soluble in an aqueous solution less than 100 μg/ml are considered hydrophobic. On the other hand hydrophilic peptides dissolve in a buffered aqueous solution in concentration over 100 μg/ml. Hydrophilic peptides may further be divided into cationic (>20% basic amino acids including lysine, arginine, histidine), anionic (>20% acidic amino acids including aspartic acid, glutamic acid) and hydroxyl-rich peptides (>30% —OH containing amino acids like serine, threonine, tyrosine).
The peptide mixture contains 6 peptides (see table 1), which show a broad range of solubility. […] Peptides 1236, 1240, and 1242 can sequentially be dissolved in water, provided that the final pH is adjusted to pH 8.5. At lower pH a gel is formed presumably due to charge interactions and/or hydrogen bond formation. This gel can not be sterile filtered as it blocks the filter immediately. However, upon addition of poly-L-arginine (pR) to the aqueous solution of the three peptides a precipitate forms that makes sterile filtration of the solution impossible.
As with the formulation of example 1, for the manufacturing of a suspension formulation it is necessary first to dissolve peptides 83 and 84 in an aqueous buffer solution and peptides 87, 89, and 1426 in DMSO. After sterile filtration the solutions can be combined to form the final suspension.

[2] = suspension formulation stored at room temperature (Figure C)

SMILES	solubility in DMSO [1]	solubility in water [1]	degradation [2]	solubility in water ([1]; listed as Ipep 84)
CC[C@H](C)[C@H](NC(=O)CNC(=O)[C@H](CO)NC(=O)[C@@H](NC(=O)[C@H](Cc1ccccc1)NC(=O)[C@H](CC(N)=O)NC(=O)[C@H](Cc1c[nH]c2ccccc12)NC(=O)[C@H](CCSC)NC(=O)[C@@H](N)Cc1c[nH]cn1)[C@@H](C)CC)C(=O)N[C@@H](CCC(N)=O)C(=O)N[C@@H](Cc1ccc(O)cc1)C(=O)N[C@@H](CC(C)C)C(=O)N[C@@H](C)C(=O)NCC(=O)N[C@@H](CC(C)C)C(=O)N[C@@H](CO)C(=O)N[C@H](C(=O)N[C@@H](CC(C)C)C(=O)N1CCC[C@H]1C(=O)NCC(=O)N[C@@H](CC(N)=O)C(=O)N1CCC[C@H]1C(=O)N[C@@H](C)C(=O)O)[C@@H](C)O [Peptide 1426] (H-HMWNFISGIQYLAGLSTLPGNPA-OH; N-terminus and C-terminus assumed)	only soluble in DMSO			
CC[C@H](C)[C@H](N)C(=O)N[C@@H](CC(=O)O)C(=O)N[C@@H](CCC(=O)O)C(=O)N[C@@H](CC(C)C)C(=O)N[C@@H](CCCCN)C(=O)N[C@H](C(=O)N[C@@H](CC(N)=O)C(=O)N[C@@H](CO)C(=O)N[C@@H](CO)C(=O)N[C@@H](CC(C)C)C(=O)N[C@@H](CC(C)C)C(=O)N[C@H](C(=O)N[C@@H](CO)C(=O)N[C@H](C(=O)N[C@@H](CC(C)C)C(=O)N[C@H](C(=O)N[C@@H](Cc1ccc(O)cc1)C(=O)N[C@@H](Cc1c[nH]cn1)C(=O)N[C@H](C(=O)N[C@H](C(=O)O)C(C)C)C(C)C)[C@@H](C)O)[C@@H](C)CC)[C@@H](C)O)[C@@H](C)O [Peptide 1235] (H-IDELKTNSSLLTSILTYHVV-OH; N-terminus and C-terminus assumed)	only dissolve in DMSO	hydrophobic		
CC[C@H](C)[C@H](NC(=O)[C@H](Cc1ccc(O)cc1)NC(=O)CNC(=O)[C@H](CCSC)NC(=O)[C@H](CC(C)C)NC(=O)[C@@H](N)CC(=O)O)C(=O)N1CCC[C@H]1C(=O)N[C@@H](C)C(=O)N[C@H](C(=O)O)C(C)C [Peptide 87] (H-DLMGYIPAV-OH; N-terminus and C-terminus assumed)	dissolve easily in DMSO	poorly water soluble		
CC[C@H](C)[C@H](NC(=O)[C@@H](NC(=O)[C@H](Cc1ccccc1)NC(=O)[C@H](CC(N)=O)NC(=O)[C@@H](NC(=O)[C@@H](NC(=O)[C@H](CS)NC(=O)[C@@H]1CCCN1C(=O)[C@H](Cc1ccc(O)cc1)NC(=O)[C@H](Cc1c[nH]cn1)NC(=O)[C@H](Cc1c[nH]c2ccccc12)NC(=O)[C@H](CC(C)C)NC(=O)[C@H](CCCNC(=N)N)NC(=O)[C@H](Cc1ccc(O)cc1)NC(=O)[C@@H]1CCCN1C(=O)[C@H](Cc1ccc(O)cc1)NC(=O)[C@@H](N)CC(=O)O)[C@@H](C)O)C(C)C)[C@@H](C)O)C(=O)N[C@@H](Cc1ccccc1)C(=O)N[C@@H](CCCCN)C(=O)N[C@H](C(=O)O)C(C)C [Peptide 1846] (H-DYPYRLWHYPCTVNFTIFKV-OH; N-terminus and C-terminus assumed)			oxidation of Ipep 1846 to its dimer	
CC[C@H](C)[C@H](N)C(=O)NCC(=O)N[C@@H](CC(C)C)C(=O)NCC(=O)N[C@@H](CCCCN)C(=O)N[C@H](C(=O)N[C@@H](CC(C)C)C(=O)N[C@H](C(=O)N[C@@H](CC(=O)O)C(=O)N[C@H](C(=O)N[C@@H](CC(C)C)C(=O)N[C@@H](C)C(=O)NCC(=O)N[C@@H](Cc1ccc(O)cc1)C(=O)NCC(=O)N[C@@H](C)C(=O)NCC(=O)N[C@H](C(=O)N[C@@H](C)C(=O)NCC(=O)N[C@@H](C)C(=O)N[C@@H](CC(C)C)C(=O)N[C@H](C(=O)N[C@@H](C)C(=O)N[C@@H](Cc1ccccc1)C(=O)N[C@@H](CCCCN)C(=O)O)C(C)C)C(C)C)[C@@H](C)CC)C(C)C)C(C)C [Peptide 1798] (H-IGLGKVLVDILAGYGAGVAGALVAFK-OH; N-terminus and C-terminus assumed)		water soluble on its own		
CC(C)C[C@H](NC(=O)[C@H](Cc1ccccc1)NC(=O)[C@@H](N)CC(N)=O)C(=O)N[C@@H](CC(C)C)C(=O)N1CCC[C@H]1C(=O)N[C@@H](CC(=O)O)C(=O)N[C@@H](C)C(=O)N[C@@H](CCC(N)=O)C(=O)N[C@@H](C)C(=O)N[C@@H](C)C(=O)N[C@@H](C)C(=O)N[C@@H](C)C(=O)NCC(=O)N[C@@H](Cc1ccccc1)C(=O)N[C@@H](C)C(=O)N[C@@H](CO)C(=O)N[C@@H](CCCCN)C(=O)O [Peptide 1241] (H-NFLLPDAQAAAAGFASK-OH; N-terminus and C-terminus assumed)	only dissolve in DMSO	hydrophobic		
CC[C@H](C)[C@H](NC(=O)[C@H](CC(N)=O)NC(=O)[C@@H](NC(=O)[C@H](CC(N)=O)NC(=O)[C@@H](N)Cc1ccc(O)cc1)[C@@H](C)CC)C(=O)N[C@@H](CO)C(=O)N[C@@H](CC(C)C)C(=O)N1CCC[C@H]1C(=O)N[C@@H](CO)C(=O)N[C@@H](Cc1ccc(O)cc1)C(=O)N[C@@H](Cc1ccc(O)cc1)C(=O)N1CCC[C@H]1C(=O)N[C@@H](CC(=O)O)C(=O)N[C@@H](CCC(N)=O)C(=O)N[C@@H](CCCCN)C(=O)N[C@@H](CO)C(=O)N[C@@H](CC(C)C)C(=O)N[C@@H](CCC(=O)O)C(=O)N[C@@H](CC(N)=O)C(=O)N[C@@H](Cc1ccc(O)cc1)C(=O)O [Peptide 1242] (H-YNINISLPSYYPDQKSLENY-OH; N-terminus and C-terminus assumed)	can also be dissolved in DMSO	water soluble		
CC[C@H](C)[C@H](NC(=O)[C@H](CCC(N)=O)NC(=O)CNC(=O)CNC(=O)CNC(=O)[C@@H]1CCCN1C(=O)[C@H](Cc1ccccc1)NC(=O)[C@@H](N)CCCCN)C(=O)N[C@H](C(=O)NCC(=O)NCC(=O)N[C@H](C(=O)N[C@@H](Cc1ccc(O)cc1)C(=O)N[C@@H](CC(C)C)C(=O)N[C@@H](CC(C)C)C(=O)N1CCC[C@H]1C(=O)N[C@@H](CCCNC(=N)N)C(=O)N[C@@H](CCCNC(=N)N)C(=O)NCC(=O)N1CCC[C@H]1C(=O)N[C@@H](CCCNC(=N)N)C(=O)N[C@@H](CC(C)C)C(=O)NCC(=O)N[C@H](C(=O)N[C@@H](CCCNC(=N)N)C(=O)N[C@@H](C)C(=O)N[C@H](C(=O)N[C@@H](CCCNC(=N)N)C(=O)N[C@@H](CCCCN)C(=O)O)[C@@H](C)O)C(C)C)C(C)C)C(C)C [Peptide 1835] (H-KFPGGGQIVGGVYLLPRRGPRLGVRATRK-OH; N-terminus and C-terminus assumed)		water soluble		
CC[C@H](C)[C@H](NC(=O)[C@H](CCC(N)=O)NC(=O)CNC(=O)CNC(=O)CNC(=O)[C@@H]1CCCN1C(=O)[C@H](Cc1ccccc1)NC(=O)[C@@H](N)CCCCN)C(=O)N[C@H](C(=O)NCC(=O)NCC(=O)N[C@H](C(=O)N[C@@H](Cc1ccc(O)cc1)C(=O)N[C@@H](CC(C)C)C(=O)N[C@@H](CC(C)C)C(=O)N1CCC[C@H]1C(=O)N[C@@H](CCCNC(=N)N)C(=O)N[C@@H](CCCNC(=N)N)C(=O)NCC(=O)N1CCC[C@H]1C(=O)N[C@@H](CCCNC(=N)N)C(=O)N[C@@H](CC(C)C)C(=O)O)C(C)C)C(C)C [Peptide 83] (H-KFPGGGQIVGGVYLLPRRGPRL-OH; N-terminus and C-terminus assumed)	soluble	soluble		
CC[C@H](C)[C@H](NC(=O)[C@H](CC(N)=O)NC(=O)[C@@H](NC(=O)[C@@H](NC(=O)CNC(=O)[C@H](C)NC(=O)[C@H](C)NC(=O)[C@H](C)NC(=O)[C@H](CCC(N)=O)NC(=O)[C@H](C)NC(=O)[C@@H](NC(=O)CNC(=O)[C@H](C)NC(=O)CNC(=O)[C@H](CO)NC(=O)CNC(=O)[C@@H](N)[C@@H](C)O)[C@@H](C)CC)[C@@H](C)O)C(C)C)C(=O)O [Peptide 1236]	does not dissolve in DMSO	slowly dissolves in water		
CC[C@H](C)[C@H](NC(=O)[C@@H](NC(=O)[C@H](C)NC(=O)[C@@H](NC(=O)[C@H](CO)NC(=O)[C@H](CO)NC(=O)[C@H](CCCCN)NC(=O)[C@H](CC(C)C)NC(=O)[C@H](CC(=O)O)NC(=O)[C@H](CO)NC(=O)[C@@H](N)C(C)C)[C@@H](C)O)C(C)C)C(=O)N1CCC[C@H]1C(=O)NCC(=O)N[C@@H](Cc1ccc(O)cc1)C(=O)N1CCC[C@H]1C(=O)N[C@H](C(=O)N[C@@H](C)C(=O)NCC(=O)N[C@@H](CCC(N)=O)C(=O)N[C@H](C(=O)O)C(C)C)C(C)C [Peptide 1240] (H-VSDLKSSTAVIPGYPVAGQV-OH; N-terminus and C-terminus assumed)	can also be dissolved in DMSO	water soluble		
CC(C)C[C@H](NC(=O)[C@@H](NC(=O)[C@H](CC(C)C)NC(=O)[C@@H](NC(=O)[C@H](CCCCN)NC(=O)[C@H](Cc1ccc(O)cc1)NC(=O)CN)C(C)C)C(C)C)C(=O)N[C@@H](CC(N)=O)C(=O)N1CCC[C@H]1C(=O)N[C@@H](CO)C(=O)N[C@H](C(=O)N[C@@H](C)C(=O)N[C@@H](C)C(=O)N[C@H](C(=O)O)[C@@H](C)O)C(C)C [Peptide 84]	soluble	soluble		water soluble
